Active and inactive are the calls of the source. No cut-off for these calls is given here.
Key:
Type in all cases: functional, organism-based
Conditions in all cases: time 9.0 day
Mus musculus [1] = assay: Anti-inflammatory activity in DSS-induced ulcerative colitis C57BL/6 mouse model assessed as reduction in histological colitis severity score at 10 mg/kg,ip administrated for 9 days
Mus musculus [2] = assay: Anti-inflammatory activity in DSS-induced ulcerative colitis C57BL/6 mouse model assessed as increase in body weight at 10 mg/kg,ip administrated for 9 days
Mus musculus [3] = assay: Anti-inflammatory activity in DSS-induced ulcerative colitis C57BL/6 mouse model assessed as reduction in disease activity index (DAI) score at 10 mg/kg,ip administrated for 9 days
Mus musculus [4] = assay: Anti-inflammatory activity in DSS-induced ulcerative colitis C57BL/6 mouse model assessed as increase in colon length at 10 mg/kg,ip administrated for 9 days

## CC(C)(O)c1coc(S(=O)(=O)NC(=O)Nc2c3c(cc4c2CCC4)CCC3)c1
Mus musculus [1]
  Activity: inactive
Mus musculus [2]
  Activity: Active
Mus musculus [3]
  Activity: Active
Mus musculus [4]
  Activity: Active

From ChEMBL document CHEMBL5375972, “Discovery of Novel 2,3-Dihydro-1H-indene-5-sulfonamide NLRP3 Inflammasome Inhibitors Targeting Colon as a Potential Therapy for Colitis” (J Med Chem, 2023)
